# Tests used:
# [1] = system: 888mel cells; assay: 888mel metastatic melanoma model (lung surface nodules); assay type: in vivo, nude mice
# Experimental: (§1) For the following subcutaneous studies, tumor volumes are calculated by the formula [π/6(W1×W2×W2)], where W1 represents the largest tumor diameter and W2 represents the smallest tumor diameter. % T/C=100×(Treatment Volume/Initial Volume)/(Control Volume/Initial Volume). Statistical analysis is done using traditional p-value techniques. For the subcutaneous studies the p value is calculated based on the tumor volume of animals receiving the anti-TYPR antibody verses the tumor volume of the control animals. […] Statistical analysis is done using traditional p-value techniques. For the metastatic studies the p-value is calculated based on the nodules observed in the animals receiving the anti-TYPR antibody verses the nodules observed in the control animals.
# For the metastatic model, harvest, wash and resuspend 888mel cultured cells in RPMI 1640 media (10% FBS heat inactivated), inject 888mel cells intravenously. On the second day after the tumor injection, administer to mice anti-TYRP1 antibodies or control human IgG. Sacrifice mice on day 20, remove lungs, count lung surface nodules and calculate percent inhibition.
# For the subcutaneous model, harvest, wash and resuspend cultured 624mel cells, in a 50/50 solution of Matrigel and RPMI 1640 media (10% FBS heat inactivated). Inject 2×10^6 624mel cells into the left flank of nude mice. […]
# [2] = system: TYRP1 (+) human 624mel cells; assay: Complement dependent cytotoxicity (CDC) assay; assay type: cell-based; conditions: for induction of CDC (in words): 624mel cells in vitro; for Human CDC (%): Table 4 summary, 624mel cells
# Experimental: Wash human melanoma cell line 624mel 3 times and bring to a concentration of 10^6 viable cells/mL in a suitable media, such as AIM V Media (Invitrogen Life Technologies). […] Add low-Tox-M Rabbit complement (Cedarlane Labs, Westbury, N.Y.) diluted 1:5 in AIM V at 50 μl/well and incubate for 1 hr at 37° C. Count cells for viability with Trypan Blue (Invitrogen Life Technologies).
# [3] = system: human SKmel23 cells; assay: SKmel23 metastatic melanoma model (lung surface nodules); assay type: in vivo, nude mice; conditions: for reduced metastasis (percent inhibition of lung nodules): SKmel23 i.v., day 20
# Experimental: as §1
# (§2) B16BL6 is an aggressive and spontaneously arising murine melanoma. It forms lung metastases in nude mice after intravenous administration. Harvest, wash and resuspend cultured SKmel23 and B16BL6 cells melanoma cells in RPMI 1640 media (10% FBS heat inactivated).
# (§3) Model 2: Inject 1×10^5 human SKmel23 cells intravenously. On the second day after the tumor injection, administer to mice anti-TYRP1 antibodies or control human IgG, according to two different dose concentrations (200 μg/mouse and 500 μg/mouse). Sacrifice mice on day 20, remove lungs, count lung surface nodules and calculate percent inhibition.
# (§4) For the subcutaneous model, harvest, wash and resuspend cultured 624mel cells, in a 50/50 solution of Matrigel and RPMI 1640 media (10% FBS heat inactivated). Inject 2×10^6 624mel cells into the left flank of nude mice. When tumors reach 200 mm^3, treat mice with anti-TYRP1 antibodies, DTIC, or a combination of anti-TYRP1 antibodies and DTIC. Administer 40 mg/kg antibodies once per week. Administer DTIC 5 mg/kg once per week. Measure tumors with calipers twice a week and calculate % T/C. For metastatic model, harvest, wash and resuspend cultured SKmel23, 888mel and B16 melanoma cells, in RPMI 1640 media (10% FBS heat inactivated). Inject SKmel23, 888mel and B16 melanoma cells intravenously. On the second day after the tumor injection, administer to mice anti-TYRP1 antibodies or control human IgG. Sacrifice mice on day 20, remove lungs, count lung surface nodules and calculate percent inhibition.
# [4] = system: TYRP1 (+) human 624mel cells; assay: Antibody dependent cellular cytotoxicity (ADCC) against human melanoma in vitro; assay type: cell-based; conditions: 624mel cells in vitro
# Experimental: Collect and wash 624mel cells with a suitable media, such as AIM V media (Invitrogen Life Technologies) and plate the cells at a density of 10,000 cells /well in a 100 μL volume, in a 96-well Falcon U bottom plate. Add antibodies at 5 μg/mL in a 50 μL volume and incubate at 37° C. for 0.5 hr with target cells. Effector cells were added in a volume of 50 μL at various E:T (effector:target) ratios. Plates were further incubated for 4 hrs at 37° C. After incubation, plates were spun down at 800 g, and 100 μL of supernatants were gently transferred to 96 well flat bottom plates. Lactate dehydrogenase assay reagent was added as specified by the manufacturer (Roche) and plates were read at 490 nm. Controls in assay: Target Spontaneous and Target Maximum (by adding 50 μL of 4% triton).
# Lysis is dependent on the effector to target concentration with lysis of 50% of target cells occurring at an E:T ratio of 100:1.
# [5] = system: 624mel xenograft; assay: 624mel subcutaneous xenograft model; assay type: in vivo, nude mice
# Experimental: as §1
# (§5) Harvest, wash and resuspend 624mel cultured cells in a 50/50 solution of Matrigel and RPMI 1640 media (10% FBS heat inactivated). For the subcutaneous tumor model, inject 2×10^6 cells subcutaneously into the left flank of nude mice. When tumors reach 200 mm^3, treat mice with anti-TYRP1 antibodies or control human IgG; administer antibodies 1 mg/mouse three times per week. Measure tumors with calipers twice a week and calculate % T/C. […] Tumor growth was inhibited and reached statistical significance at day 16 post initiation of antibody treatment (T/C=44%; P=0.01). […] Lysates of skins from different species are incubated with TA99 (5 μg/ml) for 2 hours at room temperature. The lysates are then precipitated with protein A and subjected to SDS-PAGE under reducing and non-reducing conditions using […]. After electrophoresis, the gels are transferred to PVDF membrane (Invitrogen Life Technologies). […] The blot is developed using a chemiluminescent substrate (KPL, Gaithersburg, Md.).
# For the subcutaneous tumor model, harvest, wash and resuspend 624mel cultured cells in a 50/50 solution of Matrigel and RPMI 1640 media (10% FBS heat inactivated), then inject 2×10^6 624mel cells subcutaneously into the left flank of nude mice. […] Measure tumors with calipers twice a week and calculate % T/C. […]
# [6] = system: Human FcR; assay: Human FcR binding; conditions: Table 4 summary
# [7] = system: SKmel28 xenografts; assay: SKmel28 subcutaneous xenograft model; assay type: in vivo, nude mice
# Experimental: as §1, §5
# Mix Skmel28 cells in a 50/50 solution of Matrigel and RPMI 1640 media (10% FBS heat inactivated). Inject 2×10^6 cells subcutaneously into the left flank of nude mice. When tumors reach 200 mm^3, treat mice with anti-TYRP1 antibodies (6 mg/kg, 20 mg/kg, or 60 mg/kg) or control human IgG three times per week. Measure tumors with calipers twice a week and calculate % T/C. […] The anti-tumor effects at each dose were statistically significant: […] (T/C=50%; P=0.04), […] (T/C=19%; P<0.003).
# [8] = system: B16BL6 murine melanoma; assay: B16BL6 metastatic melanoma model (lung surface nodules); assay type: in vivo, nude mice; conditions: for Inhibition of lung metastases: B16BL6 i.v., day 20
# Experimental: as §1, §2
# as §3, with “1:” for “2:”, “B16BL6” for “human SKmel23”, “three” for “two”, “μg/mouse, 500 μg/mouse,” for “μg/mouse”, “1 mg/mouse).” for “500 μg/mouse).”
# as §4
substance,measurement,setting,value
"20D7: recombinant human monoclonal antibody, full length IgG1κ targeting TYRP1; heavy chain SEQ ID NO 29, light chain SEQ ID NO 32 [Antibody 20D7]",inhibition of lung surface metastasis,"[1]; 888mel i.v. in nude mice, day 20",77%
same,% inhibition,"[1]; Table 9, Metastatic, 888 mel",77%
same,induction of CDC (in words),[2],induce CDC
same,Human CDC (%),[2],100%
same,complement-mediated cell lysis (in words),[2]; antibody concentration of 3.7 μg/mL,complete cell lysis
same,reduced metastasis (percent inhibition of lung nodules),[3]; 200 μg/dose,58%
same,reduced metastasis (percent inhibition of lung nodules),[3]; 500 μg/dose,73%
same,% inhibition,"[3]; Table 9, Metastatic, SKmel23",80%
same,induction of ADCC (in words),[4],induce ADCC
same,T/C,"[5]; 624mel subcutaneous xenograft, 40 mg/kg twice per week",21%
same,% T/C,"[5]; Table 9, Subcutaneous, 624mel, antibody 40 mg/kg once per week, DTIC 5 mg/kg once per week",50%
same,T/C,"[5]; established 624mel tumors, 1 mg/mouse three times per week, day 16 post initiation of antibody treatment",44%
same,Human FcR binding,[6],110 pM
same,T/C,"[7]; SKmel28 dose response, 6 mg/kg three times per week",69%
same,T/C,"[7]; SKmel28 dose response, printed as 6 mg/kg and 20 mg/kg, three times per week",50%
same,T/C,"[7]; SKmel28 dose response, printed as 6 mg/kg and 60 mg/kg, three times per week",19%
same,T/C,"[7]; SKmel28 xenografts, vs human IgG control, day 43",51%
same,Inhibition of lung metastases,[8]; 200 μg/mouse,65%
same,Inhibition of lung metastases,[8]; 500 μg/mouse,74%
same,Inhibition of lung metastases,[8]; 1 mg/mouse,95%
same,% inhibition,"[8]; Table 9, Metastatic, B16",95%
CTA99: chimeric anti-TYRP1 antibody with TA99 variable regions and human constant region IgG1; SEQ ID NO 31 and 33,induction of CDC (in words),[2],induce CDC
same,Human CDC (%),[2],94%
same,CDC percentage of cytotoxicity,[2]; antibody concentration 0.05 μg/mL,9.5%
same,CDC percentage of cytotoxicity,[2]; antibody concentration 0.41 μg/mL,53%
same,CDC percentage of cytotoxicity,[2]; antibody concentration 1.23 μg/mL,54%
same,CDC percentage of cytotoxicity,[2]; antibody concentration 3.7 μg/mL,95%
same,reduced metastasis (percent inhibition of lung nodules),[3]; 200 μg/dose,63%
same,reduced metastasis (percent inhibition of lung nodules),[3]; 500 μg/dose,75%
same,induction of ADCC (in words),[4],induce ADCC
